Measurements as given in patent publication US5861395A, “Compounds useful for inhibition of farnesyl proteins transferase” (Schering Corporation, priority 1997, dated 1999).
Values joined by “and” are separate entries in the source; they are usually repeats but may differ in a detail not shown here. Equal entries are not always repeated. Where two headings read alike, the source gives them in different places.

Key:
[1] = target: farnesyl protein transferase (H-ras) (Homo sapiens, UniProt P49354+P49356); test: FPT IC50 (H-ras), in vitro enzyme assay; format: biochemical
Experimental: (§1) FPT IC50 (inhibition of farnesyl protein transferase, in vitro enzyme assay), GGPT IC50 (inhibition of geranylgeranyl protein transferase, in vitro enzyme assay) and COS Cell IC50 (Cell-Based Assay) were determined following the assay procedures described in WO 95/10516, published Apr. 20, 1995. Cell Mat Assay, and anti-tumor activity (in vivo anti-tumor studies) could be determined by the assay procedures described in WO 95/10516. The disclosure of WO 95/10516 is incorporated herein by reference thereto.

[2] = target: farnesyl protein transferase (K-ras) (Homo sapiens, UniProt P49354+P49356); test: FPT IC50 (K-ras), in vitro enzyme assay; format: biochemical
Experimental: as §1

[3] = test system: COS Cell; test: COS Cell IC50 (Cell-Based Assay)
Experimental: as §1

[4] = target: farnesyl protein transferase; test: FPT IC50 (inhibition of farnesyl protein transferase, in vitro enzyme assay); format: biochemical
Text: In Table 2 "Ex. No." stands for "Example Number". In Table 2, FPT IC50 results are less indicated otherwise.

[5] = test system: Human tumor cells; test: Soft Agar Assay (anchorage-independent growth); format: cell-based; details: Homo sapiens, Table 4; colonies after 10-16 days at 37° C.
Experimental: Soft Agar Assay: Anchorage-independent growth is a characteristic of tumorigenic cell lines. Human tumor cells are suspended in growth medium containing 0.3% agarose and an indicated concentration of a farnesyl transferase inhibitor. The solution is overlayed onto growth medium solidified with 0.6% agarose containing the same concentration of farnesyl transferase inhibitor as the top layer. After the top layer is solidified, plates are incubated for 10-16 days at 37° C. under 5% CO2 to allow colony outgrowth. […] Colonies can be counted and the IC50 's can be determined.

[6] = target: T1, geranylgeranyl protein transferase (Rattus norvegicus, UniProt P53610+Q04631); test: GGPT IC50 (inhibition of geranylgeranyl protein transferase, in vitro enzyme assay); format: biochemical
T1 construct: from tissue; host or cells: rat brain (own knowledge of the cited WO 95/10516)
Experimental: as §1

Row | SMILES | IC50 ([4]; Table 3) [nM] | IC50 [5] [nM] | IC50 ([3]; Table 4) [nM] | other results
1 | CC(=O)OC[C@H]1O[C@@H](NC(=S)N2CCC(CC(=O)N3CCC([C@H]4c5ncc(Br)cc5CCc5cc(Cl)cc(Br)c54)CC3)CC2)[C@H](OC(C)=O)[C@@H](OC(C)=O)[C@@H]1OC(C)=O [Compound 4.0-B] |  |  | 1000 | IC50 [1]: 12 nM; IC50 [2]: 29 nM
2 | O=CN1CCC(CC(=O)N2CCC([C@H]3c4ncc(Br)cc4CCc4cc(Cl)cc(Br)c43)CC2)CC1 [Compound 5.0-B] | 3.7 |  | 8 | IC50 [2]: 16 nM
3 | O=C(CC1CCN(C(=O)c2ncccc2O)CC1)N1CCC([C@H]2c3ncc(Br)cc3CCc3cc(Cl)cc(Br)c32)CC1 [Compound 83.0-B] | 3.2 | 500 | 12 | 
4 | O=C(CC1CCN(C(=O)c2ccoc2)CC1)N1CCC([C@H]2c3ncc(Br)cc3CCc3cc(Cl)cc(Br)c32)CC1 [Compound 84.0-B] | 8.5 | 100 | 11 | 
5 | O=C(CC1CCN(C(=O)c2ccc(O)nc2)CC1)N1CCC([C@@H]2c3c(Br)cc(Cl)cc3CCc3cc(Br)c[n+]([O-])c32)CC1 [Compound 91.0-B] | 2.5 | > 500 | 500 | 
6 | O=C(NC(=O)C(Cl)(Cl)Cl)O[C@H]1CC[C@@H](C(=O)N2CCC(CC(=O)N3CCC([C@H]4c5ncc(Br)cc5CCc5cc(Cl)cc(Br)c54)CC3)CC2)CC1 [Compound 93.0-B] | 5.7 | 410 | 30 | 
7 | NC(=O)O[C@H]1CC[C@@H](C(=O)N2CCC(CC(=O)N3CCC([C@H]4c5ncc(Br)cc5CCc5cc(Cl)cc(Br)c54)CC3)CC2)CC1 [Compound 94.0-B] | 4 | 210 | 25 | 
8 | N#CN1CCC(CC(=O)N2CCC([C@H]3c4ncc(Br)cc4CCc4cc(Cl)cc(Br)c43)CC2)CC1 [Compound 98.0-B] |  | 100 | 12 | IC50 [1]: 2.3 nM and 2.4 nM; IC50 [2]: 17 nM
9 | N=C(Oc1ccccc1)N1CCC(CC(=O)N2CCN(C3c4ccc(Cl)cc4CCc4cc(Br)cnc43)CC2)CC1 (centres unmarked) [Example 3, PHENYL 4-[2-[4-(3-BROMO-8-CHLORO-6,11-DIHYDRO-5 H-BENZO[5,6]CYCLOHEPTA1,2-b]PYRIDIN-11-YL)-1-PIPERAZINYL]-2-OXOETHYL-1-PIPERIDINECARBOXIMIDATE] |  |  |  | IC50 [1]: 290 nM
10 | N=C(NCc1cccnc1)N1CCC(CC(=O)N2CCC(C3c4ccc(Cl)c(Br)c4CCc4cc(Br)cnc43)CC2)CC1 (centres unmarked) [Example 29] |  |  |  | IC50 ([4]; Table 2): 11 nM; IC50 ([2]; Table 2): 782 nM; IC50 [6]: 7500 nM; IC50 ([3]; Table 2): > 1000 nM
11 | N#CN1CCC(CC(=O)N2CCC(C3c4ccc(Cl)c(Br)c4CCc4cc(Br)cnc43)CC2)CC1 (centres unmarked) [Example 30] |  |  |  | IC50 ([4]; Table 2): 7 nM; IC50 ([2]; Table 2): 38.7 nM; IC50 ([3]; Table 2): 460 nM

Now from value to compound, other results behind:

Row | IC50 ([4]; Table 3) [nM] | IC50 [5] [nM] | SMILES | IC50 ([3]; Table 4) [nM] | other results
12 |  | 380 | O=C(CC1CCN(C(=O)N2CCOCC2)CC1)N1CCC([C@H]2c3ncc(Br)cc3CCc3cc(Cl)cc(Br)c32)CC1 [Compound 100.0-B] | < 10 | IC50 [1]: 5.5 nM
13 |  | 200 | N=C(Oc1ccccc1)N1CCC(CC(=O)N2CCC([C@H]3c4ncc(Br)cc4CCc4cc(Cl)cc(Br)c43)CC2)CC1 [Example 25] | 24 | IC50 ([4]; Table 2): 8.8 nM; IC50 [2]: 46 nM; IC50 ([3]; Table 2): 24 nM
14 | 7.8 | > 500 | CCn1cccc1C(=O)N1CCC(CC(=O)N2CCC([C@H]3c4ncc(Br)cc4CCc4cc(Cl)cc(Br)c43)CC2)CC1 [Example 54] | 40 | 
